In brackets after ≈: the same amount, converted by molar mass.
Assays:
[1] = test system: Fusarium oxysporum; experiment: Antifungal activity against Fusarium oxysporum assessed as inhibition of mycelium growth at 100 ug/ml; assay type: functional; conditions: read-out: GI
[2] = test system: Cytospora; experiment: Antifungal activity against Cytospora mandshurica assessed as inhibition of mycelium growth at 100 ug/ml; assay type: functional; conditions: read-out: GI
[3] = test system: Fusarium graminearum; experiment: microbe, parasite or virus in culture; assay type: functional; conditions: read-out: GI
[4] = test system: Cytospora; experiment: Antifungal activity against Cytospora mandshurica assessed as inhibition of mycelium growth; assay type: functional, organism-based
[5] = test system: Fusarium oxysporum; experiment: Antifungal activity against Fusarium oxysporum assessed as inhibition of mycelium growth; assay type: functional, organism-based
[6] = test system: Fusarium graminearum; experiment: Antifungal activity against Fusarium graminearum assessed as inhibition of mycelium growth; assay type: functional, organism-based

SMILES	inhibition of growth at 100 µg/mL [1]	inhibition of growth at 100 µg/mL [2]	inhibition of growth at 100 µg/mL [3]	EC50 [4]	EC50 [5]	EC50 [6]
Cn1cc(C(=O)Nc2ccc(C(F)(F)F)cn2)c(C(F)(F)F)n1	39.1%	35.6%	51.6%	–	–	–
Cn1cc(C(=O)Nc2ccc(Br)cn2)c(C(F)(F)F)n1	53.5%	48.7%	73.2%	132 µg/mL (≈ 380 µM)	97.8 µg/mL (≈ 280 µM)	76.3 µg/mL (≈ 219 µM)
Cn1cc(C(=O)Nc2ccnc(Cl)c2)c(C(F)(F)F)n1	5.9%	9.1%	60.1%	–	–	–
Cc1cccc(NC(=O)c2cn(C)nc2C(F)(F)F)n1	22.3%	20.8%	34.7%	–	–	–
Cn1cc(C(=O)Nc2ccccn2)c(C(F)(F)F)n1	19.5%	9%	40.9%	–	–	–
Cn1cc(C(=O)Nc2ccncc2)c(C(F)(F)F)n1	11.8%	2.9%	26.3%	–	–	–
Cc1ccnc(NC(=O)c2cn(C)nc2C(F)(F)F)c1	6.9%	1.74%	25.2%	–	–	–
Cn1cc(C(=O)Nc2ccc(F)cn2)c(C(F)(F)F)n1	22.5%	13.6%	30.4%	–	–	–
Cn1cc(C(=O)Nc2cccnc2Cl)c(C(F)(F)F)n1	14.9%	4.9%	40.4%	–	–	–
Cc1ccc(NC(=O)c2cn(C)nc2C(F)(F)F)nc1	8.3%	0%	39.3%	–	–	–
Cn1cc(C(=O)Nc2ccc(Cl)cn2)c(C(F)(F)F)n1	30.1%	13.6%	26%	–	–	–
Cn1cc(C(=O)Nc2ccnc(Br)c2)c(C(F)(F)F)n1	10.9%	6.4%	25.2%	–	–	–
O=C(Nc1ccncc1)c1cn(-c2ccccc2)nc1C(F)(F)F	7.9%	0%	11.3%	–	–	–
O=C(Nc1ccnc(Cl)c1)c1cn(-c2ccccc2)nc1C(F)(F)F	0%	0%	16.2%	–	–	–
O=C(Nc1ccnc(Br)c1)c1cn(-c2ccccc2)nc1C(F)(F)F	5.7%	0%	10.7%	–	–	–
O=C(Nc1ccccn1)c1cn(-c2ccccc2)nc1C(F)(F)F	23.9%	17%	35.2%	–	–	–
O=C(Nc1ccncc1Br)c1cn(-c2ccccc2)nc1C(F)(F)F	27.2%	8.4%	22.6%	–	–	–
Cc1cnccc1NC(=O)c1cn(-c2ccccc2)nc1C(F)(F)F	11.5%	6.1%	6.7%	–	–	–
Cc1cc(NC(=O)c2cn(-c3ccccc3)nc2C(F)(F)F)ccn1	4.23%	0%	9.8%	–	–	–
O=C(Nc1cccnc1)c1cn(-c2ccccc2)nc1C(F)(F)F	10.6%	0%	6.1%	–	–	–
O=C(Nc1ccc(Cl)cn1)c1cn(-c2ccccc2)nc1C(F)(F)F	14.2%	10.1%	16.5%	–	–	–
Cc1ccc(NC(=O)c2cn(-c3ccccc3)nc2C(F)(F)F)nc1	20.5%	0%	6.4%	–	–	–
O=C(Nc1ccccc1-c1ccc(Cl)cc1)c1cccnc1Cl [BOSCALID]	4.3%	3.4%	35.9%	–	–	–
CC1=C(C(=O)Nc2ccccc2)SCCO1 [CARBOXIN]	23.6%	–	56.3%	–	–	–
